We go through two molecules from paper PMC2865264 (The Journal of Biological Chemistry, 2010).

One data set concerns the target T1, GST:PK50 (Trypanosoma brucei, UniProt Q26801).
T1 sequence (Q26801 1-437): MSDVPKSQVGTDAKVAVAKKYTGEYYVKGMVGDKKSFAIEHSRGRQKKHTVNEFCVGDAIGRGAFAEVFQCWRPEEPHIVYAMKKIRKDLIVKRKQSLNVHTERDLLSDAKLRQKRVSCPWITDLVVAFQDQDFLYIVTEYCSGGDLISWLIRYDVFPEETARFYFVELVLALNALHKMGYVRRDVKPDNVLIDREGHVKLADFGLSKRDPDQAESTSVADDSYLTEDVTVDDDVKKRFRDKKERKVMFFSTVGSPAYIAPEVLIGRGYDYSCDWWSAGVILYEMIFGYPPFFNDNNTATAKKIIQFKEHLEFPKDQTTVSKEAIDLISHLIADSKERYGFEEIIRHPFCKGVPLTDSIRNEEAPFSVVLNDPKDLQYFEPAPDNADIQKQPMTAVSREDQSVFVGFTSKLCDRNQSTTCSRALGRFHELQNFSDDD
The experiment in a line: radiometric filter plate kinase assay, [gamma-33P]ATP, 10-point dilution. In kind it is biochemical.

A further data set concerns the target GST:PK53 (Trypanosoma brucei, UniProt Q582J2, E440D). The note with it: ATP at its Km; peptide KKLNRTLSFAEPG; Tris-HCl pH 7.0, 1 mM MnCl2, 1% DMSO.
Substrate in the data set “purified protein”: Nc1ncnc2c1ncn2[C@@H]1O[C@H](COP(=O)(O)OP(=O)(O)OP(=O)(O)O)[C@@H](O)[C@H]1O
The experiment in a line: purified protein. As to conditions: co-substrate peptide … varied, 15 nM enzyme, Tris-HCl pH 7.9, 3 mM MnCl2.

Take `CN[C@@H]1C[C@H]2O[C@@](C)([C@@H]1OC)n1c3ccccc3c3c4c(c5c6ccccc6n2c5c31)C(=O)NC4` [staurosporine]: the IC50 (as a rule, the midpoint of a concentration-inhibition curve) on GST:PK50 was determined as 216 ± 47 nM; against GST:PK53 it was 4.6 ± 0.3 nM.

B1: GST:PK50 (Trypanosoma brucei) (protein)
chain: MSDVPKSQVGTDAKVAVAKKYTGEYYVKGMVGDKKSFAIEHSRGRQKKHTVNEFCVGDAIGRGAFAEVFQCWRPEEPHIVYAMKKIRKDLIVKRKQSLNVHTERDLLSDAKLRQKRVSCPWITDLVVAFQDQDFLYIVTEYCSGGDLISWLIRYDVFPEETARFYFVELVLALNALHKMGYVRRDVKPDNVLIDREGHVKLADFGLSKRDPDQAESTSVADDSYLTEDVTVDDDVKKRFRDKKERKVMFFSTVGSPAYIAPEVLIGRGYDYSCDWWSAGVILYEMIFGYPPFFNDNNTATAKKIIQFKEHLEFPKDQTTVSKEAIDLISHLIADSKERYGFEEIIRHPFCKGVPLTDSIRNEEAPFSVVLNDPKDLQYFEPAPDNADIQKQPMTAVSREDQSVFVGFTSKLCDRNQSTTCSRALGRFHELQNFSDDD
B1: the Michaelis constant (Km) (commonly the concentration of substrate that gives half-maximal velocity) in “purified protein” is 25.7 ± 4.8 µM.
